Data reported in patent publication US20160151366A1, “Compositions and Methods for Treating Autism Spectrum Disorders” (Vanderbilt University, priority 2014, published 2016).
Entries after “also recorded” stand apart in the source; their conditions may differ.

Assays:
[1] = system: SERT Ala56 mice; test: Tube Test for Social Dominance; type: in vivo; details: for SERT Ala56 mediated social deficits in the Tube Test: SERT Ala56 mice; for Effect of treatment on its own in the Tube Test: wildtype mice, chronic treatment 1 week
Text: FIG. 9. […] SERT Ala56 mice display social deficits in the Tube Test compared to their SERT Gly56 littermates.
FIG. 10. […] SERT Ala56 mice display social deficits in the Tube Test compared to their SERT Gly56 littermates.
FIG. 11. […] Chi Square analysis with Yate's Correction. n.s.=not significant, *p<0.05, ***p<0.001
FIG. 12. […] Chi Square analysis with Yate's Correction. n.s.=not significant, *p<0.05, ***p<0.001
Chi Square analysis with Yate's Correction. n.s.=not significant, *p<0.05, ***p<0.001
As described herein, SERT Ala56 mice have deficits in social behaviors in the Tube Test for Social Dominance. Studies were also conducted to determine the effect of specific p38 MAPK inhibitors on social deficits in the animal of ASD. Mice were treated with either saline or a specific p38 MAPK inhibitor for one week.
SERT Ala56 mice display social deficits in the Tube Test compared to their SERT Gly56 littermates.

[2] = system: IL-1β; details: in vivo treatment; cited from earlier work
[3] = system: SERT Ala56 mice; test: 8-OH-DPAT-induced hypothermia (5-HT1A receptor hypersensitivity); type: in vivo
Text: Similarly, both drugs normalize 5-HT1A receptor hypersensitivity seen in adult SERT Ala56 mice as monitored by 8-OHDPAT induced hypothermia responses. […] […].

[4] = system: SERT Ala56 mice and WT littermates; test: Biogenic monoamine levels within the CNS by HPLC; type: in vivo; details: i.p., QD×1 wk
Text: FIG. 17A-C. […] Respective brain sections were flash frozen and monoamine levels determined by HPLC. […] 5-Hydoxytryptamine (5-HT), Dopamine (DA), Norepinephrine (NE)
FIG. 19A-C. […] Respective brain sections were flash frozen and monoamine levels determined by HPLC. […] 5-Hydoxytryptamine (5-HT), Dopamine (DA), Norepinephrine (NE)
Respective brain sections were flash frozen and monoamine levels determined by HPLC.

[5] = system: SERT Ala56 mice; test: DOI-induced head twitch (5-HT2A receptor hypersensitivity); type: in vivo; details: for CNS 5-HT2A receptor hypersensitivity (DOI-induced head-twitch response): adult SERT Ala56 mice, chronic administration, dose not stated; for SERT Ala56-mediated increases in DOI-induced head twitches: QD×1 wk
Text: Two-Way ANOVA, followed by post-hoc Bonferroni's multiple comparison tests. *p<0.05, **p<0.01
FIG. 20A-B. […] Two-Way ANOVA, followed by post-hoc Bonferroni's multiple comparison tests. **p<0.01, ***p<0.001

[6] = system: SERT Ala56 mice and WT counterparts; test: Midbrain expression of SERT after chronic treatment; type: in vivo; details: 10 mg/kg, QD, i.p.×1 wk; SERT Ala56 mice or WT counterparts
[7] = chronic treatment for 1 week, dose not stated
[8] = chronic 10 mg/kg, i.p., DOI 1.0 mg/kg

CN(C)c1cc(-c2ccncc2)c(-c2ccc3ccccc3c2)nn1 [MW108]
SERT Ala56 mediated social deficits in the Tube Test ([1]; 10 mg/kg, i.p., QD×1 wk): dose-dependently attenuate
SERT Ala56 mediated social deficits in the Tube Test [1, 7]: reverses these social deficits; also recorded: reverse social behavior deficits
Effect of treatment on its own in the Tube Test [1]: no effect on its own; also recorded: Neither dose of MW108 was found to exert any effects on its own; also recorded: Neither dose of MW108 or MW150 was found to exert any effects on their own
LPS-induced increases in IL-1β within the CNS [2]: attenuate lipopolysaccharide (LPS)-induced increases in IL-1β
SERT Ala56-mediated potentiation of 8-OH-DPAT-induced hypothermia ([3]; i.p., QD×1 wk, dose not stated): reduced this effect, albeit insignificantly
Biogenic monoamine levels (5-HT, DA, NE) in midbrain, hippocampal or frontal cortex samples ([4]; 10 mg/kg): No differences between genotype or treatment group were found
CNS 5-HT2A receptor hypersensitivity (DOI-induced head-twitch response) [5]: normalize CNS 5-HT2A receptor hypersensitivity
SERT Ala56-mediated increases in DOI-induced head twitches [5, 8]: dose-dependently attenuates
Midbrain expression of SERT [6]: No changes in SERT expression

CN1CCN(c2cc(-c3ccncc3)c(-c3ccc4ccccc4c3)nn2)CC1 [MW150]
SERT Ala56 mediated social deficits in the Tube Test ([1]; 5 mg/kg, i.p., QD×1 wk): attenuates SERT Ala56-mediated social deficits; also recorded: reverses these social deficits
SERT Ala56 mediated social deficits in the Tube Test ([1]; 10 mg/kg, i.p., QD×1 wk): attenuates SERT Ala56-mediated social deficits
SERT Ala56 mediated social deficits in the Tube Test [1, 7]: reverses these social deficits; also recorded: reverse social behavior deficits
Effect of treatment on its own in the Tube Test [1]: no effects on its own; also recorded: Neither dose of MW150 was found to exert any effects on its own; also recorded: Neither dose of MW108 or MW150 was found to exert any effects on their own
SERT Ala56-mediated potentiation of 8-OH-DPAT-induced hypothermia ([3]; 5 mg/kg, i.p. QD×1 wk): attenuates
SERT Ala56-mediated potentiation of 8-OH-DPAT-induced hypothermia ([3]; 10 mg/kg, i.p. QD×1 wk): attenuates
Biogenic monoamine levels (5-HT, DA, NE) in midbrain, hippocampal or frontal cortex samples ([4]; 5 mg/kg): No differences between genotype or treatment group were found
SERT Ala56-mediated increases in DOI-induced head twitch ([5]; acute, single treatment 5 mg/kg, i.p., DOI 1.0 mg/kg): not capable of reversing; also recorded: failed to mitigate
CNS 5-HT2A receptor hypersensitivity (DOI-induced head-twitch response) [5]: normalize CNS 5-HT2A receptor hypersensitivity
SERT Ala56-mediated increases in DOI-induced head twitches ([5]; chronic 5 mg/kg, i.p., DOI 1.0 mg/kg): mitigates
SERT Ala56-mediated increases in DOI-induced head twitches [5, 8]: mitigates
